Results as given in patent publication US11957766B2, “HNQO1-activatable fluorescent probe for imaging cancer cells in-vitro and in-vivo” (Texas Tech University System, priority 2019, dated 2024).

Tests used:
[1] = NIR-ASM tolerability and toxicity in vivo; design: species or system CD1 mice; conditions: 5 mg/kg five times a week for five weeks
Description: Assessment of NIR-ASM biocompatibility. Inspired by the excellent photophysical properties of NIR-ASM in monitoring the NQO1 activity in vitro, the inventors determined the biocompatibility of NIR-ASM both in vitro and in vivo before using for endogenous applications. […] Further, to evaluate NIR-ASM tolerability and toxicity in vivo, CD1 mice were grouped for the administration of vehicle (PEG:H2O:EtOH) alone or 5 mg/kg of NIR-ASM five times a week for five weeks. The average mouse weights were monitored as a surrogate marker to the toxicity.
Hematoxylin and eosin (H&E) staining. The hematoxylin and eosin staining were performed as described previously. Briefly, freshly dissected tissues were snap freeze and store at −20° C. for overnight. Frozen tissues were cut into […] slices, the sections were stained in Mayer's Hematoxylin and Eosin solution. Finally, the sections were dehydrated and mounted with Permount in a fume hood. The results were analyzed under a phase-contrast Olympus microscope (Olympus America Inc).

hNQO1 in T98G cells = assay: siRNA knockdown of NQO1 and NQ-DCP activation; type: cell-based, human; conditions: compared with a siRNA control, 10 μM probe
Description: Evaluation of Specificity in Cancer Cells. To show the substrate selectivity of NQ-DCP for hNQO1, T98G cells were pretreated with 100 nM of NQO1 inhibitor ES936 for 6 h and incubated 10 μM of NQ-DCP.
Knockdown of NQO1 by Small Interfering RNA (siRNA). NQO1 siRNA (a pool of 3 target-specific 19-25 nt siRNAs, Santa Cruz Biotechnology, Inc., (Dallas, TX, USA) and scrambled siRNAs were introduced into cells using the X-tremeGENE siRNA transfection reagent (Roche, Basel, Switzerland) according to the manufacturer's instructions with 80 pmol of NQO1 siRNA and 10 μl of transfection reagent per well of a six-well plate for T98G cells.

[2] = test system: brain tumor (DAOY, T98G, and U87MG) and normal (astrocytes) cells; assay: Cytotoxicity of NQ-DCP, resazurin reduction assay; type: cell-based, human; conditions: 100 μM, 72 h incubation
Description: (§1) Visualization of Cancer Cells by Fluorescence Imaging of hNQO1. […] The cytotoxicity of NQ-DCP was initially evaluated in cultured brain tumor (DAOY, T98G, and U87MG) and normal (astrocytes) cells to assess its biocompatibility using the resazurin reduction assay. […] Cells were incubated with NQ-DCP (10 μM) for 60 min, washed with PBS and were imaged under a fluorescence microscope.

[3] = test system: DAOY, T98G, and U87MG cells; assay: Fluorescence microscopy of NQ-DCP in hNQO1 positive cancer cells; type: cell-based, human
Description: as §1
Cell Culture, Fluorescence Imaging, and Flow Cytometry Analysis. Brain tumor cells and astrocytes were grown in Dulbecco's modified Eagle's (DMEM) medium containing 10% Fetal Bovine Serum and 1% penicillin/streptomycin in a humidified atmosphere of 5% CO2 at 37° C. For fluorescence imaging, initially, cells were seeded into 6-well plate and cultured overnight in respective media at 37° C. Media was replaced with fresh medium containing 10 μM NQ-DCP and incubated at 37° C. for 60 min and then the medium was replaced with PBS and live cells were imaged using a fluorescence microscope. For inhibitor study, cells were pretreated with NQO1 inhibitor ES936 (100 nM) for 6 h before adding the NQ-DCP. For determining endogenous hNQO1 activity in cancer cells using flow cytometry, about 10×10^4 cells were incubated with 10 μM of NQ-DCP for 60 min and were analyzed using flow cytometry.

intracranial U87MG tumor = assay: Fluorescence imaging of hNQO1 in intracranial U87MG tumor-bearing mice with NQ-DCP; type: in vivo
Description: (§2) Fluorescence Imaging of hNQO1 in U87MG Tumor-Bearing Mice. With the prominent performance of NQ-DCP in cellular fluorescence imaging, the inventors further applied this probe to evaluate its capacity for the noninvasive fluorescence imaging of hNQO1 in vivo. NQ-DCP (10 mg/kg, 50 μL) was intravenously injected into sub-cutaneous U87MG tumor-bearing mice. The whole-body fluorescence was imaged with a Caliper IVIS Spectral imaging system. […] The host organs and tumor from the mice administered with NQ-DCP were harvested and their fluorescence was analyzed ex vivo using the IVIS to confirm the tumor-selective targeting ability of NQ-DCP. […] The application of NQ-DCP to image hNQO1 activity was also investigated in intracranial U87MG tumor-bearing mice. Tumor xenografts were established by implanting exponentially growing U87MG-Luc cells by stereotaxic injection into mice brain and the tumor growth was assessed by quantitative bioluminescence using IVIS (in vivo imaging system) (FIG. 7C). […] Therefore, the inventors performed intracranial injection of NQ-DCP (100 μM, 5 μL) to both healthy and tumor-bearing mice, the brain was isolated after 30 min and fluorescence images acquired.
Four-week-old male and female NCG and athymic nude mice were housed in a micro ventilated caging system in a sterile environment and fed ad-libitum with standard irradiated research rodent diet and water. To detect endogenous NQO1 activity, NQ-DCP (10 mg/kg) was dissolved PEG-400:EtOH:saline (57.1:14.3:28.6, v/v/v) and 50 μL given through intravenous injection and animals were imaged using IVIS Lumina XR Imaging system. To establish U87MG xenografts, a total of 5×10^6 cells (in 0.1 mL) were subcutaneously injected into the right inguinal area of the athymic nude mice. For establishing the orthotopic brain tumor model, the animals were anesthetized using 2% isoflurane and positioned in a Benchmark (Leica) stereotactic instrument. A 27-gauge needle was then used to drill a burr hole into the skull 0.5-mm anterior and 2-mm lateral to the bregma. U87MG-Luc2 cell suspension (2×10^5 cells in 5 μl PBS) was injected in the striatum at a depth of […] from the dural surface over 10 min. […] To detect endogenous NQO1 activity, orthotopic brain tumor models, NQ-DCP ([…]) was dissolved saline and 5 μL given through intracranial injection to both healthy and tumor-bearing mice. After 30 min of administration, brains were isolated and imaged using IVIS Lumina XR Imaging system.

subcutaneous U87MG tumor = assay: Fluorescence imaging of hNQO1 in subcutaneous U87MG tumor-bearing mice with NQ-DCP; type: in vivo
Description: as §2
Four-week-old male and female NCG and athymic nude mice were housed in a micro ventilated caging system in a sterile environment and fed ad-libitum with standard irradiated research rodent diet and water. […]

[4] = intracranial injection 100 μM, 5 μL, brain isolated after 30 min

## CC1=C(C)C(=O)C(C(C)(C)CC(=O)Nc2ccc(/C=C/C3=CC(=C(C#N)C#N)CC(C)(C)C3)cc2)=C(C)C1=O [NIR-ASM, (E)-N-(4-(2-(3-(dicyanomethylene)-5,5-dimethylcyclohex-1-en-1-yl)vinyl)phenyl)-3-methyl-3-(2,4,5-trimethyl-3,6-dioxocyclohexa-1,4-dien-1-yl)butanamide]
[1]; versus control
  histological features (brain, heart, lung, liver, spleen, kidney; H&E): no significant differences
[1]; versus vehicle
  average body weights: no remarkable changes

## CC1=C(C)C(=O)C(C(C)(C)CC(=O)Oc2ccc(/C=C/C3=CC(=C(C#N)C#N)CC(C)(C)C3)cc2)=C(C)C1=O [NQ-DCP]
hNQO1 in T98G cells
  decrease in fluorescence after siRNA silencing of the hNQO1 gene: 90-95%
[2]
  cytotoxicity: nontoxic
[3]; 10 μM, 60 min
  fluorescence signal in cancer cells: bright fluorescence signals
[3]; inferred from intracellular activation
  cell permeability: good cell permeability
Intracranial U87MG tumor; explanation offered ("perhaps") for lack of signal after systemic injection
  blood-brain barrier crossing: inability of the NQ-DCP to cross the blood-brain barrier
Intracranial U87MG tumor; [4]
  ex vivo brain fluorescence, control healthy mouse: no fluorescence
  ex vivo brain fluorescence, tumor-bearing mouse: bright fluorescence signal
Intracranial U87MG tumor; systemic injections of the probe
  fluorescence signal in intracranial tumors: not able to observe any fluorescence signal
Subcutaneous U87MG tumor; 10 mg/kg, 50 μL, intravenous
  time of maximum fluorescence in the tumor: 30 min
Subcutaneous U87MG tumor; organs harvested after intravenous NQ-DCP, 30 min
  ex vivo fluorescence in tumor and organs: selectively observed in the tumor and not in any other major organs
